Test results from patent publication US20240101576A1, “HETEROCYCLIC INHIBITORS OF EGFR AND/OR HER2, FOR USE IN THE TREATMENT OF CANCER” (Scorpion Therapeutics, Inc., priority 2020, published 2024).

Assays:
Type in all cases: cell-based
[1] = target: T1, EGFR L858R/C797S (Ba/F3 cells) (Homo sapiens, UniProt P00533, C797S/L858R); assay: Inhibitor activity on EGFR-dependent cell growth (CellTiter-Glo, 72 h), Ba/F3 EGFR L858R/C797S; details: read-out: BaF3 L858R/C797S IC50
T1 construct: expressed in transfected cells; host or cells: Ba/F3 (murine pro-B cells), retroviral transduction, puromycin selection, IL3-independent pool
In short: (§1)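 Ba/F3, retrovirally transduced, puromycin-selected, grown without IL3; cells/well: L858R 400, L858R/C797S 600, exon 19del 800, FQEA 800. Cpds from 10 mM DMSO stock, 3-fold ×10 dilution, 120 nL per well; 72 h. CTG readout; IC50 via Hill equation.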

[2] = target: T1, EGFR L858R/C797S (Ba/F3 cells); assay: Inhibitor activity on EGFR phosphorylation (pEGFR AlphaLISA, 2 h), Ba/F3 EGFR L858R/C797S
In short: (§2)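 Cellular EGFR autophosphorylation assay. IL3-independent Ba/F3 transductants or CUTO14 cells are incubated with serially diluted compound (3-fold, 10 points) for 2 h, then lysed and pEGFR quantified by AlphaLISA.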

EGFR WT (Ba/F3 cells) = target: T2, EGFR WT (Ba/F3 cells) (Homo sapiens, UniProt P00533); assay: Inhibitor activity on EGFR-dependent cell growth (CellTiter-Glo, 72 h), Ba/F3 EGFR WT; details: read-out: BaF3 WT IC50
T2 construct: expressed in transfected cells; host or cells: Ba/F3 (murine pro-B cells), retroviral transduction, puromycin selection, maintained with EGF
In short: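 This growth assay used Ba/F3 cells that depend on wild-type EGFR and are kept in EGF without IL3. Compounds were made up as 10 mM DMSO stocks and diluted 3-fold over 10 points. 120 nL went onto 600 cells/well. After 72 hours, 40 μL CellTiter-Glo was added and luminescence read on EnVision after 30 min.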

[3] = target: T3, EGFR exon 19del (Ba/F3 cells) (Homo sapiens, UniProt P00533); assay: Inhibitor activity on EGFR phosphorylation (pEGFR AlphaLISA, 2 h), Ba/F3 EGFR exon 19del; details: read-out: Del19 IC50 (pEGFR)
In short: as §2

[4] = target: T3, EGFR exon 19del (Ba/F3 cells); assay: Inhibitor activity on EGFR-dependent cell growth (CellTiter-Glo, 72 h), Ba/F3 EGFR exon 19del; details: Ba/F3 EGFR exon 19del cell growth, read-out: BaF3 Del19 IC50
In short: as §1

[5] = target: T4, EGFR exon 20 FQEA Ins A763_V764 (Ba/F3 cells) (Homo sapiens, UniProt P00533, INS763FQEA); assay: Inhibitor activity on EGFR-dependent cell growth (CellTiter-Glo, 72 h), Ba/F3 EGFR exon 20 FQEA Ins; details: read-out: BaF3 FQEA IC50
T4 construct: expressed in transfected cells; host or cells: Ba/F3 (murine pro-B cells), retroviral transduction, puromycin selection, IL3-independent pool
In short: as §1

[6] = target: T5, EGFR exon 20 NPG Ins D770_N771 (Ba/F3 cells) (Homo sapiens, UniProt P00533, INS770NPG); assay: Inhibitor activity on EGFR phosphorylation (pEGFR AlphaLISA, 2 h), Ba/F3 EGFR exon 20 NPG Ins
T5 construct: expressed in transfected cells; host or cells: Ba/F3 (murine pro-B cells), retroviral transduction, puromycin selection, IL3-independent pool
In short: as §2

EGFR L858R (Ba/F3 cells) [7] = target: T6, EGFR L858R (Ba/F3 cells) (Homo sapiens, UniProt P00533, L858R); assay: Inhibitor activity on EGFR-dependent cell growth (CellTiter-Glo, 72 h), Ba/F3 EGFR L858R; details: read-out: BaF3 L858R IC50
T6 construct: expressed in transfected cells; host or cells: Ba/F3 (murine pro-B cells), retroviral transduction, puromycin selection, IL3-independent pool
In short: as §1

[8] = target: T7, EGFR exon 20 SVD Ins D770_N771 (Ba/F3 cells) (Homo sapiens, UniProt P00533, INS770SVD); assay: Inhibitor activity on EGFR phosphorylation (pEGFR AlphaLISA, 2 h), Ba/F3 EGFR exon 20 SVD Ins
T7 construct: expressed in transfected cells; host or cells: Ba/F3 (murine pro-B cells), retroviral transduction, puromycin selection, IL3-independent pool
Source text: Example B. Inhibitor Activity on EGFR phosphorylation (pEGFR)
EGFR mutant Ba/F3 cells were generated by transduction with retrovirus containing vectors expressing EGFR L858R, EGFR exon 19del, EGFR L858R/C797S, EGFR exon 20 NPG Ins D770_N771, EGFR exon 20 ASV Ins V769_D770, or EGFR exon 20 SVD Ins D770_N771 genes along with a puromycin selection marker. Transduced cells are selected with puromycin for 7 days and are then be transferred into culture media without Interleukin 3 (IL3). Surviving cells are confirmed to express EGFR by Western blot and maintained as a pool. CUTO14 cells were obtained from Dr. Robert C. Doebele at the University of Colorado. The IC50 date are included in Table 6 and Table 7.
1.1 Cells are harvested from flask into cell culture medium and the cell number counted.
1.2 Cells are diluted with culture medium to the desired density and 40 μL of cell suspension is added into each well of 384-well cell culture plate and the seeding density is 50K cells/well (Ba/F3) or 12.5K cells/well (CUTO14).
2 Compound Preparation and Treatment
2.1 Test compounds are dissolved to 10 mM in a DMSO stock solution. 45 μL of stock solution is transferred to a 384 polypropylene plate (pp-plate). Perform 3-fold, 10-point dilution via transferring 15 μL compound into 30 μL DMSO using a TECAN (EVO200) liquid handler.
2.2 Spin plates at room temperature at 1,000 RPM for 1 minute.
2.3 Transfer 5 nL of diluted compound from compound source plate into the cell plate.
2.4 After compound treatment for 2 hours, perform pEGFR detection by AlphaLISA for compound treatment plates as described in “Detection” section.
3 Detection by pEGFR AlphaLISA (Perkin-Elmer)
3.1 Plates are removed from incubators and equilibrated at room temperature for 10 minutes, and media was removed
3.2 10 μL of lysis buffer is added and plates shaken at 600 rpm for 1 hr.
3.3 Prepare acceptor mix just before use and dispense 5 μL of acceptor mix to all the wells. Shake 350 rpm for Ihr in the dark
3.4 Prepare donor mix under low light conditions prior to use. Dispense 5 μL of donor mix to all the wells. Mix well on the shaker, seal and wrap in aluminum foil and incubate 1.5 hrs at room temperature in the dark
3.5 Transfer 18.5 μL mixture to OptiPlate 384, and read using an Envision. The IC50 date were included in Table 6 and Table 7.

[9] = target: T5, EGFR exon 20 NPG Ins D770_N771 (Ba/F3 cells); assay: Inhibitor activity on EGFR-dependent cell growth (CellTiter-Glo, 72 h), Ba/F3 EGFR exon 20 NPG Ins; details: read-out: BaF3 NPG IC50
In short: (§3)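 IC50s derive from a sigmoidal dose–response fit of CellTiter-Glo signal. The signal was normalised between […]-treated cells and cell-free medium. Ba/F3 mutant-EGFR cells, seeded at 400–800/well depending on the line, had 72 h of exposure to a 10-point, 3-fold compound series.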

EGFR L858R (Ba/F3 cells) [10] = target: T6, EGFR L858R (Ba/F3 cells); assay: Inhibitor activity on EGFR phosphorylation (pEGFR AlphaLISA, 2 h), Ba/F3 EGFR L858R
In short: as §2

EGFR (CUTO14 cells) = EGFR (CUTO14 cells) (Homo sapiens, UniProt P00533); assay: Inhibitor activity on EGFR phosphorylation (pEGFR AlphaLISA, 2 h), CUTO14 cells
In short: as §2

[11] = target: T8, EGFR exon 20 ASV Ins V769_D770 (Ba/F3 cells) (Homo sapiens, UniProt P00533, INS769ASV); assay: Inhibitor activity on EGFR phosphorylation (pEGFR AlphaLISA, 2 h), Ba/F3 EGFR exon 20 ASV Ins; details: EGFR phosphorylation, AlphaLISA, 2 hours; read-out: ASV IC50 (pEGFR)
T8 construct: expressed in transfected cells; host or cells: Ba/F3 (murine pro-B cells), retroviral transduction, puromycin selection, IL3-independent pool
In short: as §2

[12] = target: T8, EGFR exon 20 ASV Ins V769_D770 (Ba/F3 cells); assay: Inhibitor activity on EGFR-dependent cell growth (CellTiter-Glo, 72 h), Ba/F3 EGFR exon 20 ASV Ins; details: read-out: BaF3 ASV IC50
In short: as §3

[13] = target: T7, EGFR exon 20 SVD Ins D770_N771 (Ba/F3 cells); assay: Inhibitor activity on EGFR-dependent cell growth (CellTiter-Glo, 72 h), Ba/F3 EGFR exon 20 SVD Ins; details: read-out: BaF3 SVD IC50
In short: as §3

T6 sequence (P00533 25-1210 L858R): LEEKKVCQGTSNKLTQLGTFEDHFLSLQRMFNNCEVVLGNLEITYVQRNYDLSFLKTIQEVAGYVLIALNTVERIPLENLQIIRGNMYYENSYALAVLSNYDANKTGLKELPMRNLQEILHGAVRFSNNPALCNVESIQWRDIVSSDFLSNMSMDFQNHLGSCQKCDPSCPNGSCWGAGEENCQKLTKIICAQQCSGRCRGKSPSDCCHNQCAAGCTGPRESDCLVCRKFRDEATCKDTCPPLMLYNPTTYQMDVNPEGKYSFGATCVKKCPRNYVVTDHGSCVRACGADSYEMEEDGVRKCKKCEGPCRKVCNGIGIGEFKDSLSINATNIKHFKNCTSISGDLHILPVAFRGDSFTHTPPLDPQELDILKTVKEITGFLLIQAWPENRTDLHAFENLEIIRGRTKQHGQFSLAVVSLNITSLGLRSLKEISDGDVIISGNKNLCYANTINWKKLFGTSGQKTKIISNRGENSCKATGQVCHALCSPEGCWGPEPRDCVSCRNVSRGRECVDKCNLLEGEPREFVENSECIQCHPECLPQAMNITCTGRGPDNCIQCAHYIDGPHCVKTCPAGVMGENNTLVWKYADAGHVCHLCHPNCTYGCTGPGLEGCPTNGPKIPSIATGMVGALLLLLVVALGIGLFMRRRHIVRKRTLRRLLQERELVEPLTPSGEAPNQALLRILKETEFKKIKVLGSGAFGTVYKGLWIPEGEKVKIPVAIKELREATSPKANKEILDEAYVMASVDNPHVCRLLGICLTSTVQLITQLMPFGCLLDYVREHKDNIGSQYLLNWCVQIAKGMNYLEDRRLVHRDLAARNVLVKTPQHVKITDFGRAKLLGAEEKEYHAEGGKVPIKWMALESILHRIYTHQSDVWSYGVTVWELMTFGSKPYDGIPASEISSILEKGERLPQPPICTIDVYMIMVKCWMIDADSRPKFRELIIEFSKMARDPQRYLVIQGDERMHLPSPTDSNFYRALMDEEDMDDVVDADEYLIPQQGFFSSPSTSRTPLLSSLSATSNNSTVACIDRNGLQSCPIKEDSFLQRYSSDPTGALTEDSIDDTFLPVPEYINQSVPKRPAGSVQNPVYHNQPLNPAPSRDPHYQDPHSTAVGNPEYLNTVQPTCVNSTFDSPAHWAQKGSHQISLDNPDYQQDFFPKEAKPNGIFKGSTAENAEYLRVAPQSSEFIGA
T2 sequence (P00533 25-1210): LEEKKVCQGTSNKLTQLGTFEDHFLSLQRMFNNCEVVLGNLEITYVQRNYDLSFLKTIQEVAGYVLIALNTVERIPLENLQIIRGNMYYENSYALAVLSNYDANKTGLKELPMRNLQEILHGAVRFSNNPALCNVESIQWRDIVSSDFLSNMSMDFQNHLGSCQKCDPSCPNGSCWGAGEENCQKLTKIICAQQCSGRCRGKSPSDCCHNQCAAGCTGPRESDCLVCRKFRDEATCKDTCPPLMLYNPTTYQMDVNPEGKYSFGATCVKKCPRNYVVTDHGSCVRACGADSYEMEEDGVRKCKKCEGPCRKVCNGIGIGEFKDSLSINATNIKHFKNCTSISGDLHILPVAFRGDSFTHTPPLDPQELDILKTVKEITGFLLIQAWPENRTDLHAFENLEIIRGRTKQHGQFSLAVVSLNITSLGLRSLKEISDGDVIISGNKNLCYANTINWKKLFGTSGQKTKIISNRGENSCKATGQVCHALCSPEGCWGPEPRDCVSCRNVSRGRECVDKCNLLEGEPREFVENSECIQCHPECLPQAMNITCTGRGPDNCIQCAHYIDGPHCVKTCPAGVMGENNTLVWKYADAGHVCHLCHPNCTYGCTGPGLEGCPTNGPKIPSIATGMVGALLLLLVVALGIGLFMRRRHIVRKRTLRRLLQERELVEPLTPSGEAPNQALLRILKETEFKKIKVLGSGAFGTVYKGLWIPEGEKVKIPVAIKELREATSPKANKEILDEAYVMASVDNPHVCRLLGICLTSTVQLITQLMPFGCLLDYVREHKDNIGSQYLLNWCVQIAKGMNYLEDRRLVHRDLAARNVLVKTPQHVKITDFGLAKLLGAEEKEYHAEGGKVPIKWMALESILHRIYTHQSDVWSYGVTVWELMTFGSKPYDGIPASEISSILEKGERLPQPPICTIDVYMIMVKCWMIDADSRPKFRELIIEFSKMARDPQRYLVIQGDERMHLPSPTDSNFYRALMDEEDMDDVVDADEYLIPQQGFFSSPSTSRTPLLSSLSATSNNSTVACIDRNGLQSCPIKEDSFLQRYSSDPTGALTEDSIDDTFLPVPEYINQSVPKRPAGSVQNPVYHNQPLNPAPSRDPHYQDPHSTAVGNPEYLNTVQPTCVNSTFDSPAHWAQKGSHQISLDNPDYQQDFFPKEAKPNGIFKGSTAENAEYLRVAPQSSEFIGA
T4 sequence (P00533 with tags, fused parts or gaps INS763FQEA): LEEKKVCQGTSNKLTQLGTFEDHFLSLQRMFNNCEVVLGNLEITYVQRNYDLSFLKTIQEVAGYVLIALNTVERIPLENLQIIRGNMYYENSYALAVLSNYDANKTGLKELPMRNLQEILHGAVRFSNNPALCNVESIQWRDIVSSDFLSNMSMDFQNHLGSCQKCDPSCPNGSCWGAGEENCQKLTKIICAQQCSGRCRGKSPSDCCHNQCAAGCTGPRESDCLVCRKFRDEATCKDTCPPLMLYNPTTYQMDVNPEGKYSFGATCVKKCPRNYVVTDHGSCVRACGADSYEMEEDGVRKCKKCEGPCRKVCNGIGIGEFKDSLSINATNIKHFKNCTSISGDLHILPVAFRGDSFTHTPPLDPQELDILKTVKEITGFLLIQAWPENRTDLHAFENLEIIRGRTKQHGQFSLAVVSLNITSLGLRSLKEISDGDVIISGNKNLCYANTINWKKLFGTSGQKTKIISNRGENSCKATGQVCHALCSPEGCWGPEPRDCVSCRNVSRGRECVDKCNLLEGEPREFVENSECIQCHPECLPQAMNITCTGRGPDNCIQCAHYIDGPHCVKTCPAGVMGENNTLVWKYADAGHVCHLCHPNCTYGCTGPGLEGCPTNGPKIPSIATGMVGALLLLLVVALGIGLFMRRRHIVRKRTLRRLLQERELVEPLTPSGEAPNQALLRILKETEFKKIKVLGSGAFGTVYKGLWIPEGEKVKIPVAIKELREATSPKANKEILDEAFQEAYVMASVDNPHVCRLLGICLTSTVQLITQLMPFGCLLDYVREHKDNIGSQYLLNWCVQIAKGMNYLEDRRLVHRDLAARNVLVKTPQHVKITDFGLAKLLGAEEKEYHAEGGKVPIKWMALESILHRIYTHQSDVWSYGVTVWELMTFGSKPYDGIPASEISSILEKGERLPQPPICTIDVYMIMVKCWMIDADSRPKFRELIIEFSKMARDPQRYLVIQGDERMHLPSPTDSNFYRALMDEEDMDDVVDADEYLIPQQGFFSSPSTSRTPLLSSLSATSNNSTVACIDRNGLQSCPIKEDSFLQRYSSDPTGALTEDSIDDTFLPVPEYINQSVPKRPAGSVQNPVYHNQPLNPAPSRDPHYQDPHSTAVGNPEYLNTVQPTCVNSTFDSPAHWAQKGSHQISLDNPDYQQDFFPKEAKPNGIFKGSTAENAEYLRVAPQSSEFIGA
T3 sequence (P00533 with tags, fused parts or gaps DEL746-750): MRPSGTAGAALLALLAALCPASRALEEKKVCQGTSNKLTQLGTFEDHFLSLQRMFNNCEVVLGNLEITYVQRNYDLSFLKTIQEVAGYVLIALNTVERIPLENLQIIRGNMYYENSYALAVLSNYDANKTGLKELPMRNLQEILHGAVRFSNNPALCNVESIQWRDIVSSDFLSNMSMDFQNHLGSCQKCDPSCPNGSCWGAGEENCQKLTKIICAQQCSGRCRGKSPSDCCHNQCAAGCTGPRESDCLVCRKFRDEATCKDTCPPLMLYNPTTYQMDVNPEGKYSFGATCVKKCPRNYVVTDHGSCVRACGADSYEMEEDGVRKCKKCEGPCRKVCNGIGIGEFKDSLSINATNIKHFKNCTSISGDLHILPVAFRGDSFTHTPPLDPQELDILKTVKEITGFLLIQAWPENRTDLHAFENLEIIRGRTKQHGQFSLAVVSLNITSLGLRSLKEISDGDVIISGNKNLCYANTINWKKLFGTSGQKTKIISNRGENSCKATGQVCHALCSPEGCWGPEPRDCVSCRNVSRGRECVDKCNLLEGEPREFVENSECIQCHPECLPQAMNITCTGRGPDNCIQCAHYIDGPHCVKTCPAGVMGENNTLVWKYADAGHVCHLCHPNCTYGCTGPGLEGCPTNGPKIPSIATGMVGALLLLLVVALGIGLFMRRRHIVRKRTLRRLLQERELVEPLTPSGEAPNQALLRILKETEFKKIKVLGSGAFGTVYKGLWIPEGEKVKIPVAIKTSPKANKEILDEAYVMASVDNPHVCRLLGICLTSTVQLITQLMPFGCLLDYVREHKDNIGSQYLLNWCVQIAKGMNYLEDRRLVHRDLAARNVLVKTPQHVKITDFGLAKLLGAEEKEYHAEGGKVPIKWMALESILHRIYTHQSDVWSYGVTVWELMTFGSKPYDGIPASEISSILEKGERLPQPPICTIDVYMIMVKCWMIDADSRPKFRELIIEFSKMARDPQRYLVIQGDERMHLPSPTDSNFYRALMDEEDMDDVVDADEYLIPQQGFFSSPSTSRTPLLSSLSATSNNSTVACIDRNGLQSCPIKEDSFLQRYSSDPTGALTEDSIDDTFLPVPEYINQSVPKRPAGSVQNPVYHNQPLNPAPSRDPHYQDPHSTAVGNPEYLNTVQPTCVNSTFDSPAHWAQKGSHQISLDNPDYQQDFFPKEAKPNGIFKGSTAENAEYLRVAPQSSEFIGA

SMILES	IC50 [1] [nM]	IC50 [2] [nM]	IC50 (EGFR WT (Ba/F3 cells)) [nM]	IC50 [3] [nM]	IC50 [4] [nM]	IC50 [5] [nM]	IC50 [6] [nM]	IC50 (EGFR L858R (Ba/F3 cells) [7]) [nM]	IC50 [8] [nM]	IC50 [9] [nM]	IC50 (EGFR L858R (Ba/F3 cells) [10]) [nM]	IC50 (EGFR (CUTO14 cells)) [nM]	IC50 [11] [nM]	IC50 [12] [nM]	IC50 [13] [nM]
COc1c(Cl)cccc1Nc1c(-c2ccnc(C)n2)[nH]c2c1C(=O)NC[C@H]2C[C@@H]1COCCO1 (single isomer, unassigned) [Compound 570]	< 100	< 100	100 to 1000	< 100	< 100	< 100	< 100	< 100	< 100	< 100	< 100	< 100	< 100	–	–
COc1c(Cl)cccc1Nc1c(-c2ccnc(C)n2)[nH]c2c1C(=O)NC[C@@H]2CC1COCCO1 (stereo in doubt) [Compound 551, (7S)-3-[(3-chloro-2-methoxyphenyl)amino]-7-[(2R)-1,4-dioxan-2-ylmethyl]-2-(2-methylpyrimidin-4-yl)-1H,5H,6H,7H-pyrrolo[3,2-c]pyridin-4-one]	< 100	< 100	100 to 1000	< 100	< 100	100 to 1000	< 100	< 100	< 100	< 100	< 100	< 100	< 100	–	–
COc1c(Cl)cccc1Nc1c(-c2ccncc2F)[nH]c2c1C(=O)NC[C@@H]2C[C@H]1COCCO1 [Compound 481, (7S)-3-[(3-chloro-2-methoxyphenyl)amino]-7-[(2S)-1,4-dioxan-2-ylmethyl]-2-(3-fluoropyridin-4-yl)-1H,5H,6H,7H-pyrrolo[3,2-c]pyridin-4-one]	< 100	< 100	100 to 1000	< 100	< 100	< 100	< 100	< 100	< 100	< 100	< 100	< 100	< 100	–	–
COc1c(Cl)cccc1Nc1c(-c2ccnc(N)n2)[nH]c2c1C(=O)NC[C@H]2C[C@@H]1COCCO1 [Compound 567, (7R)-2-(2-aminopyrimidin-4-yl)-3-[(3-chloro-2-methoxyphenyl)amino]-7-[(2R)-1,4-dioxan-2-ylmethyl]-1H,5H,6H,7H-pyrrolo[3,2-c]pyridin-4-one]	–	–	100 to 1000	–	< 100	< 100	< 100	< 100	< 100	< 100	–	< 100	< 100	< 100	< 100
COCC[C@@H]1CNC(=O)c2c1[nH]c(-c1ccnc(N)n1)c2Nc1cccc(Cl)c1OC [Compound 726, (7R)-2-(2-aminopyrimidin-4-yl)-3-[(3-chloro-2-methoxyphenyl)amino]-7-(2-methoxyethyl)-1H,5H,6H,7H-pyrrolo[3,2-c]pyridin-4 one]	–	–	< 100	–	–	< 100	< 100	–	< 100	< 100	–	< 100	< 100	< 100	< 100
COc1ncc2nccc(-c3[nH]c4c(c3Nc3cccc(Cl)c3OC)C(=O)NCC4)c2n1 [compound 408]	–	–	< 100	–	–	< 100	< 100	–	< 100	< 100	–	< 100	< 100	< 100	< 100
COc1c(Cl)cccc1Nc1c(-c2ccnc(Nc3cnnn3C)n2)[nH]c2c1C(=O)NCC2 [compound 512, 3-[(3-chloro-2-methoxyphenyl)amino]-2-{2-[(3-methyl-1,2,3-triazol-4-yl)amino]pyrimidin-4-yl}-1H,5H,6H,7H-pyrrolo[3,2-c]pyridin-4-one]	–	–	100 to 1000	–	–	< 100	< 100	–	< 100	< 100	–	< 100	< 100	< 100	< 100
COc1c(Cl)cccc1Nc1c(-c2ccnc(Nc3cnn(CC(F)F)c3)n2)[nH]c2c1C(=O)NCC2 [compound 514, 3-[(3-chloro-2-methoxyphenyl)amino]-2-(2-{[1-(2,2-difluoroethyl)pyrazol-4-yl]amino}pyrimidin-4-yl)-1H,5H,6H,7H-pyrrolo[3,2-c]pyridin-4-one]	–	–	< 100	–	–	< 100	< 100	–	< 100	100 to 1000	–	100 to 1000	< 100	< 100	< 100
COc1c(Cl)cccc1Nc1c(-c2ccnc(Nc3ccn(CC(F)F)n3)n2)[nH]c2c1C(=O)NCC2 [compound 515, 3-[(3-chloro-2-methoxyphenyl)amino]-2-(2-{[1-(2,2-difluoroethyl)pyrazol-3-yl]amino}pyrimidin-4-yl)-1H,5H,6H,7H-pyrrolo[3,2-c]pyridin-4-one]	–	–	< 100	–	< 100	< 100	< 100	< 100	< 100	< 100	–	< 100	< 100	< 100	< 100
